Where “and” joins values, the source holds several entries; their conditions need not be identical. Identical values can stand only once. Inconclusive results and toxic doses are left out.
System: B6C3F1 mice, B16 melanoma ip, median survival T/C
Assay: NCI In Vivo Anticancer Drug Screen. Data for tumor model B16 Melanoma (intraperitoneal) in B6C3F1 mice
Details: endpoint: median survival time, higher = longer survival
Procedure, shortened: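 Mice bearing transplanted tumor were dosed with compound or vehicle, and survival was recorded. Activity is expressed as the treated-group measurement (T) divided by the vehicle control measurement (C).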

[1] = dose: 12.5 mg/kg/injection, schedule: Q01DX009 (ip), vehicle: saline with Tween-80
[2] = dose: 12.5 mg/kg/injection, schedule: Q01DX009 (ip), vehicle: suspension in saline
[3] = dose: 25.0 mg/kg/injection, schedule: Q01DX009 (ip), vehicle: saline with Tween-80
[4] = dose: 25.0 mg/kg/injection, schedule: Q01DX009 (ip), vehicle: suspension in saline
[5] = dose: 50.0 mg/kg/injection, schedule: Q01DX009 (ip), vehicle: saline with Tween-80
[6] = dose: 50.0 mg/kg/injection, schedule: Q01DX009 (ip), vehicle: suspension in saline
[7] = dose: 100.0 mg/kg/injection, schedule: Q01DX009 (ip), vehicle: saline with Tween-80
[8] = dose: 100.0 mg/kg/injection, schedule: Q01DX009 (ip), vehicle: suspension in saline
[9] = dose: 200.0 mg/kg/injection, schedule: Q01DX009 (ip), vehicle: saline with Tween-80
[10] = dose: 50.0 mg/kg/injection, schedule: Q01DX009 (ip), vehicle: Klucel (hydroxypropylcellulose) (HPC)
[11] = dose: 100.0 mg/kg/injection, schedule: Q01DX009 (ip), vehicle: Klucel (hydroxypropylcellulose) (HPC)
[12] = dose: 200.0 mg/kg/injection, schedule: Q01DX009 (ip), vehicle: Klucel (hydroxypropylcellulose) (HPC)
[13] = dose: 400.0 mg/kg/injection, schedule: Q01DX009 (ip), vehicle: Klucel (hydroxypropylcellulose) (HPC)
[14] = dose: 6.25 mg/kg/injection, schedule: Q01DX009 (ip), vehicle: saline
[15] = dose: 12.5 mg/kg/injection, schedule: Q01DX009 (ip), vehicle: saline
[16] = dose: 25.0 mg/kg/injection, schedule: Q01DX009 (ip), vehicle: saline
[17] = dose: 50.0 mg/kg/injection, schedule: Q01DX009 (ip), vehicle: saline
[18] = dose: 100.0 mg/kg/injection, schedule: Q01DX009 (ip), vehicle: saline
[19] = dose: 6.25 mg/kg/injection, schedule: Q01DX009 (ip), vehicle: Klucel (hydroxypropylcellulose) (HPC)
[20] = dose: 12.5 mg/kg/injection, schedule: Q01DX009 (ip), vehicle: Klucel (hydroxypropylcellulose) (HPC)
[21] = dose: 25.0 mg/kg/injection, schedule: Q01DX009 (ip), vehicle: Klucel (hydroxypropylcellulose) (HPC)
[22] = dose: 400.0 mg/kg/injection, schedule: Q01DX009 (ip), vehicle: saline with Tween-80
[23] = dose: 6.25 mg/kg/injection, schedule: Q01DX009 (ip), vehicle: saline with Tween-80

Compound: COc1ccc(/C=C/C(=O)c2cc(C(=O)O)c(OC)cc2OC)cc1OC
- T/C [1]: 100 % of control
- T/C [2]: 106 % of control
- T/C [3]: 94 % of control
- T/C [4]: 101 % of control
- T/C [5]: 96 % of control
- T/C [6]: 106 % of control
- T/C [7]: 88 % of control
- T/C [8]: 96 % of control
- T/C [9]: 96 % of control
- T/C (dose: 200.0 mg/kg/injection, schedule: Q01DX009 (ip), vehicle: suspension in saline): 108 % of control
- T/C (dose: 400.0 mg/kg/injection, schedule: Q01DX009 (ip), vehicle: suspension in saline): 98 % of control

Compound: CCCC(NC(=O)C(C)N)C(=O)O (configuration not stated)
- T/C [10]: 106 % of control
- T/C [11]: 112 % of control
- T/C [12]: 92 % of control
- T/C [13]: 98 % of control

Compound: Nc1nc(F)nc2c1ncn2C1OC(COP(=O)(O)O)C(O)C1O (configuration not stated)
- T/C [2]: 90 % of control
- T/C [4]: 97 % of control
- T/C [6]: 93 % of control
- T/C [8]: 105 % of control

Compound: NC(=O)/C=C/C(=O)c1c(Cl)cccc1Cl
- T/C (dose: 0.78 mg/kg/injection, schedule: Q01DX009 (ip), vehicle: saline with Tween-80): 100 % of control
- T/C (dose: 1.56 mg/kg/injection, schedule: Q01DX009 (ip), vehicle: saline with Tween-80): 103 % of control
- T/C (dose: 3.12 mg/kg/injection, schedule: Q01DX009 (ip), vehicle: saline with Tween-80): 90 % of control

Compound: O=C1c2ccccc2C(Cl)(c2ccc(Cl)cc2)c2ccc(Cl)cc21 (configuration not stated)
- T/C [3]: 114 % of control
- T/C (dose: 36.0 mg/kg/injection, schedule: Q01DX009 (ip), vehicle: saline with Tween-80): 109 % of control
- T/C [5]: 116 % of control and 120 % of control
- T/C (dose: 60.0 mg/kg/injection, schedule: Q01DX009 (ip), vehicle: saline with Tween-80): 111 % of control
- T/C [7]: 115 % of control and 107 % of control
- T/C (dose: 166.67 mg/kg/injection, schedule: Q01DX009 (ip), vehicle: saline with Tween-80): 122 % of control
- T/C [9]: 117 % of control
- T/C (dose: 277.78 mg/kg/injection, schedule: Q01DX009 (ip), vehicle: saline with Tween-80): 103 % of control

Compound: Cc1ncc(O)c(CO)c1O
- T/C (dose: 0.78 mg/kg/injection, schedule: Q01DX009 (ip), vehicle: saline): 102 % of control
- T/C (dose: 1.56 mg/kg/injection, schedule: Q01DX009 (ip), vehicle: saline): 102 % of control
- T/C (dose: 3.13 mg/kg/injection, schedule: Q01DX009 (ip), vehicle: saline): 99 % of control
- T/C [14]: 105 % of control
- T/C [15]: 101 % of control
- T/C [16]: 91 % of control
- T/C [17]: 96 % of control

Compound: C=C(C)CNC1=C(C)C(=O)C2=C(C1=O)[C@H](COC(N)=O)[C@]1(OC)[C@@H]3N[C@@H]3CN21
- T/C (dose: 0.5 mg/kg/injection, schedule: Q01DX001 (ip), vehicle: distilled water + Tween-80): 122 % of control
- T/C (dose: 4.0 mg/kg/injection, schedule: Q01DX001 (ip), vehicle: distilled water + Tween-80): 160 % of control
- T/C (dose: 8.0 mg/kg/injection, schedule: Q01DX001 (ip), vehicle: distilled water + Tween-80): 186 % of control
- T/C (dose: 16.0 mg/kg/injection, schedule: Q01DX001 (ip), vehicle: distilled water + Tween-80): 226 % of control

Compound: CCN(CC)CCNc1ccc(C)c2sc3ccccc3c(=O)c12
- T/C [14]: 103 % of control
- T/C [15]: 100 % of control
- T/C [16]: 104 % of control
- T/C [17]: 104 % of control
- T/C [18]: 118 % of control

Compound: Nc1nc2ncc(CNc3ccc(C(=O)NC(CCC(=O)O)C(=O)O)cc3)nc2c(=O)[nH]1 (configuration not stated)
- T/C [14]: 96 % of control
- T/C [15]: 91 % of control
- T/C [16]: 108 % of control
- T/C [17]: 96 % of control
- T/C [18]: 101 % of control

Compound: CC(C)(C)OC(=O)NC(CCCCNC(=O)C(F)(F)F)C(=O)O (configuration not stated)
- T/C [19]: 109 % of control
- T/C [20]: 99 % of control
- T/C [21]: 89 % of control and 99 % of control
- T/C [10]: 88 % of control and 96 % of control
- T/C [11]: 96 % of control

Compound: Nc1ccn(C2OC(CO)C(O)C2O)c(=O)n1 (configuration not stated)
- T/C [16]: 120 % of control
- T/C (dose: 2400.0 mg/kg/injection, schedule: Q01DX009 (ip), vehicle: saline with Tween-80): 110 % of control

Compound: O=C(O)C(CSC(c1ccccc1)(c1ccccc1)c1ccccc1)N=Cc1cccs1 (configuration not stated)
- T/C [2]: 112 % of control
- T/C [4]: 118 % of control

Compound: C[C@H]1C[C@@H]2[C@H]([C@@H](O)C[C@@]3(C)[C@H]2CC[C@]3(O)C(=O)CO)[C@@]2(C)C=CC(=O)C=C12
- T/C [19]: 115 % of control and 101 % of control
- T/C [20]: 110 % of control and 101 % of control
- T/C [21]: 114 % of control and 107 % of control
- T/C [10]: 109 % of control and 111 % of control
- T/C [11]: 118 % of control and 119 % of control
- T/C [12]: 112 % of control and 121 % of control

Compound: Oc1ccc2ccccc2c1N=Nc1ccc(Cl)cc1
- T/C [5]: 115 % of control and 118 % of control
- T/C [7]: 114 % of control and 103 % of control
- T/C [9]: 92 % of control and 101 % of control
- T/C [22]: 109 % of control

Compound: c1ccc2c(c1)-c1ccccc1C1NC21 (configuration not stated)
- T/C [23]: 103 % of control
- T/C [1]: 112 % of control

Compound: CC[C@@]1(O)C(=O)OCc2c1cc1n(c2=O)Cc2cc3cc(O)ccc3nc2-1
- T/C (dose: 0.37 mg/kg/injection, schedule: Q01DX009 (ip), vehicle: suspension in saline): 155 % of control
- T/C (dose: 0.38 mg/kg/injection, schedule: Q01DX009 (ip), vehicle: other): 160 % of control
- T/C (dose: 0.75 mg/kg/injection, schedule: Q01DX009 (ip), vehicle: other): 191 % of control
- T/C (dose: 0.75 mg/kg/injection, schedule: Q01DX009 (ip), vehicle: suspension in saline): 183 % of control
- T/C (dose: 1.5 mg/kg/injection, schedule: Q01DX009 (ip), vehicle: other): 197 % of control
- T/C (dose: 1.5 mg/kg/injection, schedule: Q01DX009 (ip), vehicle: suspension in saline): 201 % of control
- T/C (dose: 3.0 mg/kg/injection, schedule: Q01DX009 (ip), vehicle: suspension in saline): 201 % of control

Compound: COC12C(COC(N)=O)C3=C(C(=O)C(C)=C(N)C3=O)N1CC1C2N1C (configuration not stated)
- T/C (dose: 1.0 mg/kg/injection, schedule: Q01DX009 (ip), vehicle: saline): 112 % of control and 99 % of control
- T/C (dose: 2.0 mg/kg/injection, schedule: Q01DX009 (ip), vehicle: saline): 88 % of control
- T/C (dose: 8.0 mg/kg/injection, schedule: Q01DX009 (ip), vehicle: saline): 111 % of control and 89 % of control

Compound: COc1cccc2c1C(=O)c1c(O)c3c(c(O)c1C2=O)C[C@H](O)C[C@@H]3OC1CC(N)C(O)C(C)O1 (some centres not stated)
- T/C (dose: 0.75 mg/kg/injection, schedule: Q01DX009 (ip), vehicle: saline): 150 % of control
- T/C (dose: 0.75 mg/kg/injection, schedule: Q01DX009 (ip), vehicle: water): 159 % of control
- T/C (dose: 1.5 mg/kg/injection, schedule: Q01DX009 (ip), vehicle: saline): 184 % of control
- T/C (dose: 1.5 mg/kg/injection, schedule: Q01DX009 (ip), vehicle: water): 164 % of control
- T/C (dose: 3.0 mg/kg/injection, schedule: Q01DX009 (ip), vehicle: saline): 175 % of control
- T/C (dose: 3.0 mg/kg/injection, schedule: Q01DX009 (ip), vehicle: water): 192 % of control
- T/C (dose: 6.0 mg/kg/injection, schedule: Q01DX009 (ip), vehicle: saline): 260 % of control
- T/C (dose: 6.0 mg/kg/injection, schedule: Q01DX009 (ip), vehicle: water): 215 % of control
- T/C (dose: 12.0 mg/kg/injection, schedule: Q01DX009 (ip), vehicle: saline): 346 % of control
- T/C (dose: 12.0 mg/kg/injection, schedule: Q01DX009 (ip), vehicle: water): 320 % of control
- T/C (dose: 24.0 mg/kg/injection, schedule: Q01DX009 (ip), vehicle: saline): 183 % of control

Compound: CC(C)(C)OC(=O)NC(CCCNC(=O)OCc1ccccc1)C(=O)O (configuration not stated)
- T/C [11]: 110 % of control
- T/C [12]: 104 % of control
- T/C [13]: 98 % of control

Compound: Nc1ccc(S(N)(=O)=O)cc1
- T/C [1]: 94 % of control
- T/C [3]: 86 % of control and 99 % of control
- T/C [5]: 98 % of control and 100 % of control
- T/C [7]: 105 % of control and 108 % of control
- T/C [9]: 114 % of control and 101 % of control
- T/C [22]: 90 % of control and 99 % of control

Compound: COc1cc(C(C)(C)C)cc(OC)c1C(O)(c1c(OC)cc(C(C)(C)C)cc1OC)c1c(OC)cc(C(C)(C)C)cc1OC
- T/C [23]: 107 % of control
- T/C [1]: 114 % of control and 106 % of control
- T/C [3]: 112 % of control and 106 % of control
- T/C [5]: 117 % of control
- T/C [7]: 109 % of control

From PubChem BioAssay AID200 (DTP/NCI, 2004)
